Data published in patent publication US9200017B2, “Multimodal imaging of fibrin” (The General Hospital Corporation, priority 2009, dated 2015).
Positions of bridges follow the written chain, without caps; N, C: chain ends. Non-standard residues stand in square brackets, D forms with d. Residues, ends and D or L forms follow the SMILES beside them. *: point of attachment. DOTA(p-xylylenediamine) = O=C(O)CN1CCN(CC(=O)O)CCN(CC(=O)NCc2ccc(CN*)cc2)CCN(CC(=O)O)CC1; X1 = O=C1OC2(c3ccc(O)cc3Oc3cc(O)ccc32)c2ccc(NC(=S)NCc3ccc(CN*)cc3)cc21; FITC = O=C1OC2(c3ccc(O)cc3Oc3cc(O)ccc32)c2ccc(NC(=S)*)cc21; DOTA = O=C(O)CN1CCN(CC(=O)O)CCN(CC(=O)*)CCN(CC(=O)O)CC1; Tyr(3-Cl) = N[C@@H](Cc1ccc(O)c(Cl)c1)C(=O)O; Hyp = O=C(O)[C@@H]1C[C@@H](O)CN1; Ahx = NCCCCCC(=O)O

Key:
fibrin gel [1] = assay: MR phantom study at 1.5 T in fibrinogen solution and fibrin gel; details: 25 μM Gd in 5 mg/mL fibrin gel, T1-weighted
Description: Fibrinogen (fgn) (50 mg, American Diagnostica) was dissolved in 1 mL of TBS (50 mM Tris, 150 mM sodium chloride, pH 7.4) and was dialyzed against TBS with 5 mM sodium citrate. The concentration of the resulting fibrinogen solution was 8.8 mg/mL based on the absorbance at 280 nm where 1 mg/mL fgn has an optical density of 1.512 for a 1 cm path length. Solutions were prepared by diluting stock solutions of gadolinium probe and fgn to final solutions of 25 μM Gd and 5 mg/mL fgn. Gadolinium concentrations were determined by ICP-MS. Fibrin gels were prepared by adding CaCl2 and thrombin to a final concentration of 7 mM and 4 U/mL, respectively. After briefly mixing the CaCl2 and thrombin, the solutions were allowed to gel/clot for 30 minutes. After fibrin (fbn) formation was complete, the clots were pushed to the wall of the tube with a pipet tip. A total of 6×0.5 mL phantoms were prepared in 1 mL centrifuge tubes: A) pure water; B) 5 mg/mL fibrinogen; C) [Gd(HP-DO3A)] at 25 μM in 5 mg/mL fgn; D) [Gd(HP-DO3A)] at 25 μM in 5 mg/mL fbn gel; E) GdDOTA-cyclic-FBP-p-XD-FITC (compound 17) at 25 μM in 5 mg/mL fgn; F) GdDOTA-cyclic-FBP-p-XD-FITC (compound 17) at 25 μM in 5 mg/mL fbn gel.
All 6 phantoms were simultaneously imaged at room temperature at 1.5 T with a clinical MRI. T1-weighted gradient echo images were acquired with repetition time TR=9.2 ms, echo time TE=1.9 ms, flip angle=25°.

fibrin gel [2] = molecular target: T1, fibrin gel (Homo sapiens, UniProt P02671+P02675+P02679); assay: Phantom study with PET in fibrinogen solution and fibrin gel; details: 2 mg/mL fibrin gel, 150 nCi, 2.3 nmol, 21° C.
T1 construct: thrombin cleaves fibrinopeptides on fibrinogen resulting in an end-to-end polymerization to give the polymer fibrin; Fibrin is a fibrillar protein derived from the soluble plasma protein fibrinogen
T1 sequence (P02671 36-629 limits assumed): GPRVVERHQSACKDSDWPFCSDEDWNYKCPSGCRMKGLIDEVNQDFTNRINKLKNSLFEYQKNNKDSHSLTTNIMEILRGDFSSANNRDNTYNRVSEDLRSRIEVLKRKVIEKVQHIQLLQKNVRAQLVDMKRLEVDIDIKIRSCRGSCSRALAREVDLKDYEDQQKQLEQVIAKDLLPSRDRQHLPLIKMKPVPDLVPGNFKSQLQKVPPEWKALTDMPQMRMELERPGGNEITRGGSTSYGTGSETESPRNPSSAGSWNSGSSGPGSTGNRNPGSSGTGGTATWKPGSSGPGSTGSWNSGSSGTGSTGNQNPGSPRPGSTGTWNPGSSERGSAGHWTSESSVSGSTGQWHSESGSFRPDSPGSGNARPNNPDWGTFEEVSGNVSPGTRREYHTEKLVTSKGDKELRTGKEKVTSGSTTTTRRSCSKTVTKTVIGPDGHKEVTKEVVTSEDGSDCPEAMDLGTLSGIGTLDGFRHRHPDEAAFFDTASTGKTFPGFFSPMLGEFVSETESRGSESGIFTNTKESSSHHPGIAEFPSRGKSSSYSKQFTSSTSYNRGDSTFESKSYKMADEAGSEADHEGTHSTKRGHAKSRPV
T1 sequence (P02675 45-491 limits assumed): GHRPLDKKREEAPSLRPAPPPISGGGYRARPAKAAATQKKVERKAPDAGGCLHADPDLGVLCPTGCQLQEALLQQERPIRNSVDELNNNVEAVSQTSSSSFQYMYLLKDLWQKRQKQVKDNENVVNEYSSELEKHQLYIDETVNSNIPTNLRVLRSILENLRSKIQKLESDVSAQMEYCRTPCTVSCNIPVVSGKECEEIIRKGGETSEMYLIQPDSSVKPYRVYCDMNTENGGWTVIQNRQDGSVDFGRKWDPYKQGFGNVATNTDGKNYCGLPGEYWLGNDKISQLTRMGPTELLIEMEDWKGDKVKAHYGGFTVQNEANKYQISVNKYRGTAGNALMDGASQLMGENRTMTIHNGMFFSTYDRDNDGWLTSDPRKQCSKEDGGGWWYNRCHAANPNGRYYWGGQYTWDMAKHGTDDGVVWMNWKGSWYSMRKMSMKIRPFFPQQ
T1 sequence (P02679 27-437 isoform P02679-2 limits assumed): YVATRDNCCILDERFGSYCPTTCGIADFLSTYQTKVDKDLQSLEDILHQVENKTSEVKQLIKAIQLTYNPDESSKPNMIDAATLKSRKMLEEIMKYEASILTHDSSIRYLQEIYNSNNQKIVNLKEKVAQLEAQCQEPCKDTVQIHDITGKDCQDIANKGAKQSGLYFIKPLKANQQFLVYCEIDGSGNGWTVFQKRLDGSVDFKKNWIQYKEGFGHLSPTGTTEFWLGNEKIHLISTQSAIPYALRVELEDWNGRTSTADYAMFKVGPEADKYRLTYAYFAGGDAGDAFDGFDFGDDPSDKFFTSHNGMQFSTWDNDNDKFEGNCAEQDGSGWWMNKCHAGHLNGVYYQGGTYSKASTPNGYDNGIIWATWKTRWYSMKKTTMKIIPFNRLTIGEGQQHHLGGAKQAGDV
Description: ^64CuDOTA was prepared by reacting 200 μCi of ^64CuCl2 with DOTA ligand (50 nmol) in 200 μL water at pH 6.5. The pH of the solution was maintained at 6.5 and the reaction was stirred at 50° C. for 30 min. The solution was then passed through a cation-exchange resin. The resin was washed with water and the total final volume was 600 μL.
Six phantoms were prepared in 4 mL glass culture tubes. Each phantom contained fibrinogen (fgn) at a final concentration of 2 mg/mL, 2.3 nmol of peptide or DOTA, a total volume of 2 mL, and a total activity of 150 nCi. In 3 of the phantoms, Fibrin gels (fbn) were prepared by adding CaCl2 and thrombin to a final concentration of 7 mM and 4 U/mL, respectively. Once the clots had formed, the mixture was centrifuged and the clots settled to the bottom. […]
The 6 tubes were placed in a holder with each tube equidistant from the isocenter and PET data was collected for 15 minutes. […] Each of the 32 PET detector modules consists of six 12×12 LSO crystal arrays read out by a 3×3 array of APDs (Hamamatsu 8664-55, Japan). […] The emission data recorded in list-mode format were sorted in the line of response space and compressed axially in the sinogram space for fast reconstruction. The normalization was calculated from a 64-hour scan of a plane-source rotated in the FOV. […]

Human fibrin = molecular target: T2, Human fibrin (Homo sapiens, UniProt P02671+P02675+P02679); assay: Binding to human fibrin, dried fibrin microtiter plate, stoichiometric binding model; details: dried human fibrin about 2.5 mg/mL, compound 0.1 to 50 μM, 2 h; read-out: Kd, first binding event
T2 construct: thrombin cleaves fibrinopeptides on fibrinogen resulting in an end-to-end polymerization to give the polymer fibrin; Human fibrinogen (American Diagnostica) was dialyzed; purchased American Diagnostica
T2 sequence (P02671 36-629 limits assumed): T1 sequence (P02671 36-629 limits assumed)
T2 sequence (P02675 45-491 limits assumed): T1 sequence (P02675 45-491 limits assumed)
T2 sequence (P02679 27-437 isoform P02679-2 limits assumed): T1 sequence (P02679 27-437 isoform P02679-2 limits assumed)
Description: Binding can also be assessed by a dried fibrin assay. Here, purified fibrinogen (2.5 mg/mL; 7 μM fibrin) is clotted with thrombin and dried to a thin film in wells of a microtiter plate. The resulting clots bind to the plate without loss of protein. The clots are rehydrated with buffer containing known concentrations of peptide. After incubation at 37° C. for 2 hr, the concentration of peptide in the supernatant ([peptide]free) is determined (e.g. by HPLC or if the peptide is labeled with a fluorophore by fluorescence, or if labeled by a radionuclide concentration is determined by radioactivity). The concentration of fibrin-bound peptide ([peptide]bound) is calculated by subtraction ([peptide]bound)=[peptide]total−[peptide]free). A dissociation constant (Kd) for fibrin binding can be determined by fitting a plot of [peptide]bound versus [peptide]free to either a stoichiometric (see e.g. Nair et al., Angew Chem Int Ed 2008 47:4918-21) or equivalent binding sites model (see e.g. Overoye-Chan et al. J Am Chem Soc 2008 130:6025-39). […]
Solutions of compound ranging from 0.1 to 50 μM were added to each of the wells of the dried fibrin microtiter plate, and the plate was shaken for 2 h. After incubation, solution was removed and the concentration of unbound compound was determined from its radioactivity or by ICP-MS. […]

fibrin gel [3] = molecular target: T1, fibrin gel; assay: Phantom study with fluorescence imaging in fibrinogen solution and fibrin gel; details: 50 nM in 2 mg/mL fibrin gel
Description: A 10 mM solution of fluorescein was prepared in ethanol by adding 0.0113 g of fluorescein to 3 mL EtOH. This solution was diluted in water to prepare a 9.99 μM solution. Also, a dilute solution of GdDOTA-cyclic-FBP-p-XD-FITC was prepared with a final concentration of 8.55 μM. Four phantoms were prepared in 1 mL glass tubes. Each phantom contained fibrinogen at a final concentration of 2 mg/mL, 50 pmol of GdDOTA-cyclic-FBP-p-XD-FITC or fluorescein, at a total volume of 1 mL. In two of the phantoms, fibrin gels were prepared by adding CaCl2 and thrombin to a final concentration of 7 mM and 4 U/mL, respectively. Once the clots had formed, the mixture was centrifuged and the clots settled to the bottom. The 4 phantoms were labeled: A) GdDOTA-cyclic-FBP-p-XD-FITC in fgn; B) GdDOTA-cyclic-FBP-p-XD-FITC in fbn gel; C) fluorescein in fbn gel D) fluorescein in fgn. The phantoms were imaged with an IVIS Spectrum imager.

Row | Compound | MR signal distribution between clotted fibrin and supernatant (fibrin gel [1]) | PET activity distribution between fibrin clot and liquid above the clot (fibrin gel [2]) | Kd (Human fibrin) | Fluorescence intensity distribution between fibrin clot and liquid (fibrin gel [3])
1 | CC(O)CN1CCN(CC(=O)[O-])CCN(CC(=O)[O-])CCN(CC(=O)[O-])CC1.[Gd+3] (stereo not drawn) [GdHP-DO3A, reference compound] | distributed equally between the clotted fibrin and the supernatant | – | – | –
2 | O=C([O-])CN1CCN(CC(=O)O)CCN(CC(=O)[O-])CCN(CC(=O)O)CC1.[64Cu+2] [^64CuDOTA] | – | distributed equally in the clot (bottom of tube B) and in the liquid above the clot | – | –
3 | CC[C@H](C)[C@H](NC(=O)[C@H](Cc1ccc(O)cc1)NC(=O)[C@@H]1CSSC[C@H](NC(=O)[C@@H](CCC(=O)O)NC(=O)[C@H](Cc2ccc(O)cc2)NC(=O)CCCCCNC(=S)Nc2ccc3c(c2)C(=O)OC32c3ccc(O)cc3Oc3cc(O)ccc32)C(=O)N2C[C@H](O)C[C@H]2C(=O)N[C@@H](Cc2ccc(O)c(Cl)c2)C(=O)NCC(=O)N[C@@H](CC(C)C)C(=O)N1)C(=O)N[C@@H](CCC(N)=O)C(=O)NCc1ccc(CNC(=O)CN2CCN(CC(=O)O)CCN(CC(=O)O)CCN(CC(=O)O)CC2)cc1 [Compound 11, FITC-hexyl-cyclic-FBP-p-XD-DOTA-Gd] ({FITC-Ahx}-Y[dE]C[Hyp][Tyr(3-Cl)]GLCYIQ-{DOTA(p-xylylenediamine)}; disulfide 3-8) | – | – | 900 ± 300 nM | –
4 | CC[C@H](C)[C@H](NC(=O)[C@H](Cc1ccc(O)cc1)NC(=O)[C@@H]1CSSC[C@H](NC(=O)[C@@H](CCC(=O)O)NC(=O)[C@H](Cc2ccc(O)cc2)NC(=O)CN2CCN(CC(=O)O)CCN(CC(=O)O)CCN(CC(=O)O)CC2)C(=O)N2C[C@H](O)C[C@H]2C(=O)N[C@@H](Cc2ccc(O)c(Cl)c2)C(=O)NCC(=O)N[C@@H](CC(C)C)C(=O)N1)C(=O)N[C@@H](CCC(N)=O)C(=O)NCc1ccc(CNC(=S)Nc2ccc3c(c2)C(=O)OC32c3ccc(O)cc3Oc3cc(O)ccc32)cc1 [Compound 17, GdDOTA-cyclic-FBP-p-XD-FITC] ({DOTA}-Y[dE]C[Hyp][Tyr(3-Cl)]GLCYIQ-X1; disulfide 3-8) | binding to the fibrin | – | 800 ± 300 nM | localizes in the fibrin clot
